One data set has as its target Nav 1.7 (Homo sapiens (Human), UniProt Q15858). Kind of data set: Nav 1.7 in vitro PX assay (PatchXpress whole cell voltage clamp). The format is cell-based. To be noted: 293 cells, human Nav1.7, partially inactivated state; read-out: Nav1.7 PX IC50 IP. The method, boiled down:
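Partially inactivated channel state (holding potential for 20–50% inactivation) probed in human Nav1.7-transfected 293 cells by automated patch clamp, test pulse −10 mV for 20 msec.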

The target in another data set is Nav 1.5 (Homo sapiens (Human), UniProt Q14524). Briefly: Nav 1.5 in vitro PX assay (PatchXpress whole cell voltage clamp). Type of data set: cell-based. The settings on record: 293 cells stably transfected with Nav 1.5; second part of table; read-out: Nav1.5 PX IC50. As for the experimental part:
Nav 1.5 In Vitro PX Assay
293 cells stably transfected with Nav 1.5 were recorded in whole cell voltage clamp mode with the PatchXpress automated electrophysiology system according the manufacturer's specifications (Molecular Devices, LLC, Sunnyvale, Calif.). Cells were held at a holding potential of −50 mV to inactivate sodium channels. To elicit sodium currents the voltage was changed to −120 mV to recover a portion of the channels, followed by delivery of test pulses of 20 msec duration to 0 mV, at 0.1 Hz. A single concentration of test compound was applied to cells for a duration of 5 minutes. Peak sodium current was measured at the end of the compound addition period to determine percent inhibition. A minimum of two cells were tested per concentration. IC50 curves were fitted to percent inhibition as a function of concentration.

Some results are limits rather than exact numbers.

Chain of Nav 1.5 (Q14524 whole entry): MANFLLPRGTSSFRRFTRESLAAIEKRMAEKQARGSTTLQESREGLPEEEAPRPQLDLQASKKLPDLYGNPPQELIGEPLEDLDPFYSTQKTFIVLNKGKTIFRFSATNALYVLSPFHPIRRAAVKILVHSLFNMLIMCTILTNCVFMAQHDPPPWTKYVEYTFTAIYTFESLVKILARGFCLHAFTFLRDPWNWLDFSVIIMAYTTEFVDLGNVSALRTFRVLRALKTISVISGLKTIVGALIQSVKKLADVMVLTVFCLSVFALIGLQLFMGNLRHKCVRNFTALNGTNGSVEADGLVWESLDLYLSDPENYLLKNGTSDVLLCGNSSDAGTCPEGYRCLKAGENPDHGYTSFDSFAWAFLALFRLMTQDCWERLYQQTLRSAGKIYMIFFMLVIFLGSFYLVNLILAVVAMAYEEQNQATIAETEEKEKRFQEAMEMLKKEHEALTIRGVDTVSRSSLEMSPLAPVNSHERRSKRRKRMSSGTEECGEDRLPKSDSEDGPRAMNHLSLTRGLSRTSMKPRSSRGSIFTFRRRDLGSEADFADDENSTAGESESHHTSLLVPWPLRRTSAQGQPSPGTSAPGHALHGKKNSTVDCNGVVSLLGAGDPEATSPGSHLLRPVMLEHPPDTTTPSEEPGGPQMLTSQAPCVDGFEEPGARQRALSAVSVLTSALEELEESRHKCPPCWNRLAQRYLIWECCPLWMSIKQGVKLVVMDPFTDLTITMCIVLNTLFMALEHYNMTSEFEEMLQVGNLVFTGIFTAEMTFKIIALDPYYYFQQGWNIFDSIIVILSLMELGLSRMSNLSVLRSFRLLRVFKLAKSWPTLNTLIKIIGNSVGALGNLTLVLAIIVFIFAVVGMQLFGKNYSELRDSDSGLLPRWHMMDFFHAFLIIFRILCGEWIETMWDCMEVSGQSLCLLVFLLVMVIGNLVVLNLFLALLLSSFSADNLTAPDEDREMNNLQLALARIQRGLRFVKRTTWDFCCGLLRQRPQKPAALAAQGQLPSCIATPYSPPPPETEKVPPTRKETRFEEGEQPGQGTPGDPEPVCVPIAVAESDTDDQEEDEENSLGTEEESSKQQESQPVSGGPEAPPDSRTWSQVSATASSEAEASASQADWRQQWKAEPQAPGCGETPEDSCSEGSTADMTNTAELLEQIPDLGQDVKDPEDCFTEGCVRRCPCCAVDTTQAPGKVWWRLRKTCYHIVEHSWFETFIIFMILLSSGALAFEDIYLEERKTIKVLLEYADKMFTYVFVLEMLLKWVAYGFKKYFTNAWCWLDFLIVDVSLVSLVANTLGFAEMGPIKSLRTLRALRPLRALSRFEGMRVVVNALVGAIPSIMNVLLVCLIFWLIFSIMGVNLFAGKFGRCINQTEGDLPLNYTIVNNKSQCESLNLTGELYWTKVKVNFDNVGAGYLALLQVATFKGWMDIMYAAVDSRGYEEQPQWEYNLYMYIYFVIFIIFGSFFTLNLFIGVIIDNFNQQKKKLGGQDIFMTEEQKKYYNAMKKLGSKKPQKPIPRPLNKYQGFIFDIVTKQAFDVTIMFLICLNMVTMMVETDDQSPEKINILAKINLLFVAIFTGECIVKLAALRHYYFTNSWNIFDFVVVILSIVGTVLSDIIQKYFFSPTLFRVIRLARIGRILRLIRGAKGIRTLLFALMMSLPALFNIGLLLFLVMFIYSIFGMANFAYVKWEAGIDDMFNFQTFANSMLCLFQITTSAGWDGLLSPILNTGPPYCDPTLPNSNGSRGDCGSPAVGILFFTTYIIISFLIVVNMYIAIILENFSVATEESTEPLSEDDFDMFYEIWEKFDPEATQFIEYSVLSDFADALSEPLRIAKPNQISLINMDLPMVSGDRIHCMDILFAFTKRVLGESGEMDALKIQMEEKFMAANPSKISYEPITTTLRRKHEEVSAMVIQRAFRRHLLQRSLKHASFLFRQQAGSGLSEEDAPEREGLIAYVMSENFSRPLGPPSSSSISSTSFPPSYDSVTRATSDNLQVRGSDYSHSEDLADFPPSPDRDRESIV
Chain of Nav 1.7 (Q15858 whole entry): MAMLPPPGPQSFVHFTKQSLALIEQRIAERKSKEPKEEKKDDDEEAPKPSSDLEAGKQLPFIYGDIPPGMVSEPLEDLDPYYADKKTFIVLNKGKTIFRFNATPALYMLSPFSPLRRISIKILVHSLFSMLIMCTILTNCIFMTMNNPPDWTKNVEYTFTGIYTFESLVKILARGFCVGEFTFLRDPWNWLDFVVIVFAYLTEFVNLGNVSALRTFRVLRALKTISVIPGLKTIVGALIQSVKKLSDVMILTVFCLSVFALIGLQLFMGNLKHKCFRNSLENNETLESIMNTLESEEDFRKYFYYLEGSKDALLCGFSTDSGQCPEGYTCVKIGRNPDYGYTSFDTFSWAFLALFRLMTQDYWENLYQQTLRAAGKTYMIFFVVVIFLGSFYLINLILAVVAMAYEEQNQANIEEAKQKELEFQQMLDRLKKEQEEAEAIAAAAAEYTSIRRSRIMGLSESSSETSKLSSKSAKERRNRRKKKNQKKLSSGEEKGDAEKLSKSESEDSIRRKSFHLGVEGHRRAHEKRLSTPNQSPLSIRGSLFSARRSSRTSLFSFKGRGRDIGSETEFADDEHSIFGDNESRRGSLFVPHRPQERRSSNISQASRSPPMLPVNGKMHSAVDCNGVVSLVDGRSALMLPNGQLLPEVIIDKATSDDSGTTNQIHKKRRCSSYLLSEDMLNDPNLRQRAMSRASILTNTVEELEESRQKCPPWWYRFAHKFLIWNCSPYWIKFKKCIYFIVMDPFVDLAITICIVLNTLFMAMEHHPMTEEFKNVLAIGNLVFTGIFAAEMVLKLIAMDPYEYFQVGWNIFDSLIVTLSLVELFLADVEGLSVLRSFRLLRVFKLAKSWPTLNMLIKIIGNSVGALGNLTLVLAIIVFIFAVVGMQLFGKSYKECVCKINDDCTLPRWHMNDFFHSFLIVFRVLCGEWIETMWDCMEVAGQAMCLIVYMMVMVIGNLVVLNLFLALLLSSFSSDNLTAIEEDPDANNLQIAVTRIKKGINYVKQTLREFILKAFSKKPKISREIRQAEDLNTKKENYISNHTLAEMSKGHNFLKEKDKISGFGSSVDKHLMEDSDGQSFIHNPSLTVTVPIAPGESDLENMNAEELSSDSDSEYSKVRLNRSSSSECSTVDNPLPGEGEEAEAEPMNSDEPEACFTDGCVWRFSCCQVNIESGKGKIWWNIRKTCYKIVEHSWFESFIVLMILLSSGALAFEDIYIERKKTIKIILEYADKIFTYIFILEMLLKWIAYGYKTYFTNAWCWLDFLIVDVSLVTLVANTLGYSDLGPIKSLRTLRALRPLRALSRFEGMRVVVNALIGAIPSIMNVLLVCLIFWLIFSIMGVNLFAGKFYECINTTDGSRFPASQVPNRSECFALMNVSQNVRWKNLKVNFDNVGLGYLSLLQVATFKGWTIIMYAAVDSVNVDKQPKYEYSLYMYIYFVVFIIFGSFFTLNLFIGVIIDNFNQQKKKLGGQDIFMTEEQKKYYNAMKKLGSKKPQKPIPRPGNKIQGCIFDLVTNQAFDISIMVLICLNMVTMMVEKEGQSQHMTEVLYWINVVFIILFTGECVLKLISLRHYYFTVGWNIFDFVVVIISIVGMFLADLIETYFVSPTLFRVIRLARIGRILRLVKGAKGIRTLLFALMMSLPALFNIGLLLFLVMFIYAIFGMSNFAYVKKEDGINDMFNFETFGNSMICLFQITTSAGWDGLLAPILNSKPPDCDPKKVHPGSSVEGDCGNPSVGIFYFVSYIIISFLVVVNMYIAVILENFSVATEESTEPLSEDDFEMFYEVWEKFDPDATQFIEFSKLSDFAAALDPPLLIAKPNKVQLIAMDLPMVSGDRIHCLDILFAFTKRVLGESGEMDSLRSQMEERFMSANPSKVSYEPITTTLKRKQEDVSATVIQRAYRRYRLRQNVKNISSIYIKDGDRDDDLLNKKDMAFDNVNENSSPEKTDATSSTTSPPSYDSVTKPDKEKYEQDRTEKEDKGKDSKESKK

The term IC50 denotes the concentration that inhibits the measured activity by half. For the compound `COc1cc(-c2cc(C)cc(F)c2)ccc1-c1nccc2cc(S(=O)(=O)Nc3ccncn3)ccc12` [Example 472, 1-(3′-FLUORO-3-METHOXY-5′-METHYL-[1,1′-BIPHENYL]-4-YL)-N-(PYRIMIDIN-4-YL)ISOQUINOLINE-6-SULFONAMIDE], the IC50 on Nav 1.7 was 63 nM; at Nav 1.5, more than 30 µM.
With `COc1cc(Cl)ccc1-c1ccc(-c2nccc3cc(S(=O)(=O)Nc4ccncn4)ccc23)c(OC)c1` [Example 460, 1-(4′-CHLORO-2′,3-DIMETHOXY-[1,1′-BIPHENYL]-4-YL)-N-(PYRIMIDIN-4-YL)ISOQUINOLINE-6-SULFONAMIDE], the values for the IC50 at Nav 1.7 and on Nav 1.5 were 106 nM and more than 30 µM, respectively.
For `COc1cc(-c2cc(F)cc(F)c2)c(C#N)cc1-c1nccc2cc(S(=O)(=O)Nc3nncs3)ccc12` [Example 338, 1-(2-CYANO-3′,5′-DIFLUORO-5-METHOXY-[1,1′-BIPHENYL]-4-YL)-N-(1,3,4-THIADIAZOL-2-YL)ISOQUINOLINE-6-SULFONAMIDE], the IC50 on Nav 1.7 is 29 nM; at Nav 1.5, more than 30 µM.
Take `COc1cc(C(F)(F)F)ccc1-c1ncc(F)c2cc(S(=O)(=O)Nc3ncns3)ccc12` [Example 392, 4-FLUORO-1-(2-METHOXY-4-(TRIFLUOROMETHYL)PHENYL)-N-(1,2,4-THIADIAZOL-5-YL)ISOQUINOLINE-6-SULFONAMIDE]: the IC50 was 111 nM on Nav 1.7 and more than 30 µM on Nav 1.5.
Consider `COc1cc(-c2ccc(F)c(F)c2)ccc1-c1ncnc2cc(S(=O)(=O)Nc3nncs3)ccc12` [Example 530, 4-(3′,4′-DIFLUORO-3-METHOXY-[1,1′-BIPHENYL]-4-YL)-N-(1,3,4-THIADIAZOL-2-YL)QUINAZOLINE-7-SULFONAMIDE], for which the results for the IC50 on Nav 1.7 and on Nav 1.5 were 233 nM and more than 30 µM, respectively.
Take `COc1cc(-c2cc(F)cc(C#N)c2)ccc1-c1nccc2cc(S(=O)(=O)Nc3ccncn3)ccc12` [Example 487, 1-(3′-CYANO-5′-FLUORO-3-METHOXY-[1,1′-BIPHENYL]-4-YL)-N-(PYRIMIDIN-4-YL)ISOQUINOLINE-6-SULFONAMIDE]: the IC50 at Nav 1.7 was 287 nM; at Nav 1.5, more than 30 µM.
As for `COc1cc(F)cc(-c2ccc(-c3nccc4cc(S(=O)(=O)Nc5ccncn5)ccc34)c(OC)c2)c1` [Example 485, 1-(3′-FLUORO-3,5′-DIMETHOXY-[1,1′-BIPHENYL]-4-YL)-N-(PYRIMIDIN-4-YL)ISOQUINOLINE-6-SULFONAMIDE], the figures for the IC50 on Nav 1.7 and on Nav 1.5 were 128 nM and more than 30 µM, respectively.
Taken in the same sequence, the figures for `COc1cc(-c2cccc(C(F)(F)F)c2)ccc1-c1nccc2cc(S(=O)(=O)Nc3ccncn3)ccc12` [Example 351, 1-(3-METHOXY-3′-(TRIFLUOROMETHYL)-[1,1′-BIPHENYL]-4-YL)-N-(PYRIMIDIN-4-YL)ISOQUINOLINE-6-SULFONAMIDE] were 76 nM and 26.6 µM.
On to `COc1cc(-c2cc(F)ccc2F)ccc1-c1nccc2cc(S(=O)(=O)Nc3ccncn3)ccc12` [Example 446, 1-(2′,5′-DIFLUORO-3-METHOXY-[1,1′-BIPHENYL]-4-YL)-N-(PYRIMIDIN-4-YL)ISOQUINOLINE-6-SULFONAMIDE], for which the values for the IC50 at Nav 1.7 and on Nav 1.5 were 152 nM and more than 30 µM, respectively.
Taken in the same sequence, the figures for `Cc1cc(-c2cccc(F)c2)ccc1-c1nccc2cc(S(=O)(=O)Nc3ccncn3)ccc12` [Example 358, 1-(3′-FLUORO-3-METHYL-[1,1′-BIPHENYL]-4-YL)-N-(PYRIMIDIN-4-YL)ISOQUINOLINE-6-SULFONAMIDE] were 394 nM and more than 30 µM.
For the compound `COc1cc(-c2cccc(F)c2)c(C#N)cc1-c1nccc2cc(S(=O)(=O)Nc3ncns3)ccc12` [Example 340, 1-(2-CYANO-3′-FLUORO-5-METHOXY-[1,1′-BIPHENYL]-4-YL)-N-(1,2,4-THIADIAZOL-5-YL)ISOQUINOLINE-6-SULFONAMIDE], the half-maximal inhibitory concentration (IC50) at Nav 1.7 was 56 nM; on Nav 1.5, more than 30 µM.
Taken in the same sequence, the figures for `COc1cc(-c2cccc(C(F)(F)F)c2)c(C#N)cc1-c1nccc2cc(S(=O)(=O)Nc3nncs3)ccc12` [Example 339, 1-(2-CYANO-5-METHOXY-3′-(TRIFLUOROMETHYL)-[1,1′-BIPHENYL]-4-YL)-N-(1,3,4-THIADIAZOL-2-YL)ISOQUINOLINE-6-SULFONAMIDE] were 31 nM and more than 30 µM.
For the compound `COc1cc(-c2cc(F)cc(F)c2)ccc1-c1ncnc2cc(S(=O)(=O)Nc3nncs3)ccc12` [Example 531, 4-(3′,5′-DIFLUORO-3-METHOXY-[1,1′-BIPHENYL]-4-YL)-N-(1,3,4-THIADIAZOL-2-YL)QUINAZOLINE-7-SULFONAMIDE], the IC50 on Nav 1.7 was 231 nM; at Nav 1.5 it was more than 30 µM.
Turning to `COc1cc(-c2ccc(F)c(C#N)c2)ccc1-c1nccc2cc(S(=O)(=O)Nc3ccncn3)ccc12` [Example 486, 1-(3′-CYANO-4′-FLUORO-3-METHOXY-[1,1′-BIPHENYL]-4-YL)-N-(PYRIMIDIN-4-YL)ISOQUINOLINE-6-SULFONAMIDE], the IC50 on Nav 1.7 is 338 nM; on Nav 1.5 it was more than 30 µM.
For the compound `COc1nc(-c2ccc(C(F)(F)F)cc2OC)c2ccc(S(=O)(=O)Nc3nccs3)cc2n1` [Example 511, 2-methoxy-4-(2-methoxy-4-(trifluoromethyl)phenyl)-N-(thiazol-2-yl)quinazoline-7-sulfonamide], the IC50 on Nav 1.7 was 257 nM; on Nav 1.5, more than 30 µM.
As to `COc1ccccc1-c1ncc(F)c2cc(S(=O)(=O)Nc3ncns3)ccc12` [Example 393, 4-FLUORO-1-(2-METHOXYPHENYL)-N-(1,2,4-THIADIAZOL-5-YL)ISOQUINOLINE-6-SULFONAMIDE], the values for the IC50 at Nav 1.7 and on Nav 1.5 were 304 nM and more than 30 µM, respectively.
On to `COc1ccccc1-c1cncc2cc(S(=O)(=O)Nc3nccs3)ccc12` [Example 289, 4-(2-methoxyphenyl)-N-(thiazol-2-yl)isoquinoline-7-sulfonamide], for which the IC50 is 340 nM on Nav 1.7 and more than 30 µM at Nav 1.5.
Taken in the same sequence, the figures for `COc1cc(C(F)F)c(OC)cc1-c1nccc2cc(S(=O)(=O)Nc3nccs3)ccc12` [Example 452, 1-(4-(DIFLUOROMETHYL)-2,5-DIMETHOXYPHENYL)-N-(THIAZOL-2-YL)ISOQUINOLINE-6-SULFONAMIDE] were 284 nM and more than 30 µM.
In the case of `Cc1cc(Cl)ccc1-c1ncnc2cc(S(=O)(=O)Nc3ncns3)ccc12` [Example 532], the results for the IC50 on Nav 1.7 and on Nav 1.5 were 996 nM and more than 30 µM, respectively.
Turning to `COc1cc(-c2ccc(C)c(C)c2)ccc1-c1nccc2cc(S(=O)(=O)Nc3ccncn3)ccc12` [Example 469], the values for the IC50 at Nav 1.7 and at Nav 1.5 were 170 nM and more than 30 µM, respectively.
The matching figures for `COc1cc(F)ccc1-c1ncnc2cc(S(=O)(=O)Nc3nccs3)ccc12` [Example 271, 4-(4-FLUORO-2-METHOXYPHENYL)-N-(THIAZOL-2-YL)QUINAZOLINE-7-SULFONAMIDE]: 450 nM and more than 30 µM.
On to `COc1cc(-c2ccc(-c3nccc4cc(S(=O)(=O)Nc5ccncn5)ccc34)c(OC)c2)ccc1F` [Example 484, 1-(4′-FLUORO-3,3′-DIMETHOXY-[1,1′-BIPHENYL]-4-YL)-N-(PYRIMIDIN-4-YL)ISOQUINOLINE-6-SULFONAMIDE], for which the IC50 was 177 nM on Nav 1.7 and more than 30 µM on Nav 1.5.
As for `COc1cc(-c2cc(F)cc(F)c2)c(F)cc1-c1nccc2cc(S(=O)(=O)Nc3nncs3)ccc12` [Example 364, N-(1,3,4-THIADIAZOL-2-YL)-1-(2,3′,5′-TRIFLUORO-5-METHOXY-[1,1′-BIPHENYL]-4-YL)ISOQUINOLINE-6-SULFONAMIDE], the IC50 at Nav 1.7 is 36 nM; on Nav 1.5, more than 30 µM.
